Data: ChEMBL document CHEMBL1201862, “PubChem BioAssay data set” (2004)
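Briefly, cells in 96-well plates were exposed to five compound concentrations for 48 h, and endpoints were estimated by linear interpolation. Abbreviation: GI50, concentration required for 50% inhibition of growth.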 The source made the active and inactive calls. Cut-off read from the data, not from the text of the source: active = GI50 up to about 1.1 µM and inactive = higher.

Experiments:
Test in all cases: DTP human tumour cell line panel, 48 h
SNB-75 = tested on: SNB-75
NCI-H460 = tested on: NCI-H460
SF-295 = tested on: SF-295
CCRF-CEM = tested on: CCRF-CEM
UACC-62 = tested on: UACC-62
786-0 = tested on: 786-0
HT-29 = tested on: HT-29
OVCAR-8 = tested on: OVCAR-8
IGROV-1 = tested on: IGROV-1
HOP-92 = tested on: HOP-92
HCT-15 = tested on: HCT-15
HOP-62 = tested on: HOP-62
COLO 205 = tested on: COLO 205
SW-620 = tested on: SW-620
MOLT-4 = tested on: MOLT-4
KM12 = tested on: KM12

In the case of `O=C(CCc1cc(-c2ccco2)n(-c2ccc([N+](=O)[O-])cc2[N+](=O)[O-])n1)Nc1ccccc1`, the GI50 (SNB-75) is reported as > 100 µM (inactive), the GI50 (NCI-H460) is reported as > 100 µM (inactive) and the GI50 (SF-295) is reported as > 100 µM (inactive). The GI50 (CCRF-CEM) was 61 µM (inactive), the GI50 (UACC-62) was > 100 µM (inactive) and the GI50 (786-0) was > 100 µM (inactive). For the same molecule, the GI50 (HT-29) was > 100 µM (inactive), the GI50 (OVCAR-8) was > 100 µM (inactive) and the GI50 (IGROV-1) was > 100 µM (inactive). For the same molecule, the GI50 (HOP-92) was > 100 µM (inactive), the GI50 (HCT-15) was > 100 µM and the GI50 (HOP-62) was > 100 µM (inactive). For the same molecule, the GI50 (COLO 205) was > 100 µM (inactive), the GI50 (SW-620) was > 100 µM (inactive) and the GI50 (MOLT-4) was 65.8 µM (inactive). The GI50 (KM12) was > 100 µM (inactive).

`O=C1/C(=C/c2ccc(Cl)cc2)CCC1CCN1CCOCC1` (stereo unspecified) was tested, and the GI50 (SNB-75) was > 100 µM (inactive), the GI50 (NCI-H460) was 38.9 µM (inactive) and the GI50 (SF-295) was > 100 µM (inactive). For the same molecule, the GI50 (CCRF-CEM) was 29 µM (inactive), the GI50 (UACC-62) was > 100 µM (inactive) and the GI50 (786-0) was 72.3 µM (inactive). The GI50 (HT-29) was 32.8 µM (inactive), the GI50 (OVCAR-8) was > 100 µM (inactive) and the GI50 (IGROV-1) was > 100 µM (inactive). The GI50 (HOP-92) was 75.7 µM (inactive), the GI50 (HCT-15) was 36.3 µM and the GI50 (HOP-62) was 72.1 µM (inactive). For the same molecule, the GI50 (SW-620) was > 100 µM (inactive), the GI50 (MOLT-4) was 26.1 µM (inactive) and the GI50 (KM12) was 40.8 µM (inactive).

In the case of `CC12N=NNC1C(=O)NC2=O` (stereo unspecified), the GI50 (SNB-75) is reported as > 100 µM (inactive), the GI50 (NCI-H460) is reported as > 100 µM (inactive) and the GI50 (SF-295) is reported as > 100 µM (inactive). For the same molecule, the GI50 (CCRF-CEM) was > 100 µM (inactive), the GI50 (UACC-62) was > 100 µM (inactive) and the GI50 (786-0) was > 100 µM (inactive). The GI50 (HT-29) was > 100 µM (inactive), the GI50 (OVCAR-8) was > 100 µM (inactive) and the GI50 (IGROV-1) was > 100 µM (inactive). For the same molecule, the GI50 (HOP-92) was > 100 µM (inactive), the GI50 (HCT-15) was > 100 µM and the GI50 (HOP-62) was > 100 µM (inactive). For the same molecule, the GI50 (COLO 205) was > 100 µM (inactive), the GI50 (SW-620) was > 100 µM (inactive) and the GI50 (MOLT-4) was > 100 µM (inactive). The GI50 (KM12) was > 100 µM (inactive).

In the case of `COC(=O)CCC(=O)Nc1cccc(C(F)(F)F)c1`, the GI50 (SNB-75) is reported as > 74.1 µM (inactive), the GI50 (NCI-H460) is reported as > 100 µM (inactive) and the GI50 (SF-295) is reported as > 100 µM (inactive). For the same molecule, the GI50 (CCRF-CEM) was > 100 µM (inactive), the GI50 (UACC-62) was > 100 µM (inactive) and the GI50 (786-0) was > 100 µM (inactive). The GI50 (HT-29) was > 100 µM (inactive), the GI50 (OVCAR-8) was > 100 µM (inactive) and the GI50 (IGROV-1) was > 100 µM (inactive). The GI50 (HOP-92) was > 100 µM (inactive), the GI50 (HCT-15) was > 100 µM and the GI50 (HOP-62) was > 100 µM (inactive). For the same molecule, the GI50 (COLO 205) was > 100 µM (inactive), the GI50 (SW-620) was > 100 µM (inactive) and the GI50 (MOLT-4) was > 100 µM (inactive). For the same molecule, the GI50 (KM12) was > 100 µM (inactive).

`CCCCCC/C=C1\CCC(CN2CCOCC2)C1=O` (stereo unspecified) was tested, and the GI50 (SNB-75) was 21 µM (inactive), the GI50 (NCI-H460) was 38.7 µM (inactive) and the GI50 (SF-295) was 17.7 µM (inactive). The GI50 (CCRF-CEM) was 3.24 µM (inactive), the GI50 (UACC-62) was 16.8 µM (inactive) and the GI50 (786-0) was 4.23 µM (inactive). For the same molecule, the GI50 (HT-29) was 17.7 µM (inactive), the GI50 (OVCAR-8) was 16.8 µM (inactive) and the GI50 (IGROV-1) was 19 µM (inactive). For the same molecule, the GI50 (HOP-92) was 16.3 µM (inactive), the GI50 (HCT-15) was 8.67 µM and the GI50 (HOP-62) was 18.3 µM (inactive). For the same molecule, the GI50 (COLO 205) was 17.1 µM (inactive), the GI50 (SW-620) was 8.2 µM (inactive) and the GI50 (MOLT-4) was 5.26 µM (inactive). For the same molecule, the GI50 (KM12) was 7.64 µM (inactive).

For `NC1CCC[C@H]1O` (stereo partly specified), the GI50 (SNB-75) was > 100 µM (inactive), the GI50 (NCI-H460) was > 100 µM (inactive) and the GI50 (SF-295) was > 100 µM (inactive). The GI50 (CCRF-CEM) was > 100 µM (inactive), the GI50 (UACC-62) was > 100 µM (inactive) and the GI50 (786-0) was > 100 µM (inactive). The GI50 (HT-29) was > 100 µM (inactive), the GI50 (OVCAR-8) was > 100 µM (inactive) and the GI50 (IGROV-1) was > 100 µM (inactive). For the same molecule, the GI50 (HOP-92) was > 100 µM (inactive), the GI50 (HCT-15) was > 100 µM and the GI50 (HOP-62) was > 100 µM (inactive). The GI50 (COLO 205) was > 100 µM (inactive), the GI50 (SW-620) was > 100 µM (inactive) and the GI50 (MOLT-4) was > 100 µM (inactive). For the same molecule, the GI50 (KM12) was > 100 µM (inactive).

With `Cn1cnc([N+](=O)[O-])c1Sc1nc2ccccc2o1` the GI50 (SNB-75) was 16.6 µM (inactive), the GI50 (NCI-H460) was 32.3 µM (inactive) and the GI50 (SF-295) was 26.3 µM (inactive). For the same molecule, the GI50 (CCRF-CEM) was 3.03 µM (inactive), the GI50 (UACC-62) was 12.4 µM (inactive) and the GI50 (786-0) was 14 µM (inactive). The GI50 (HT-29) was 3.44 µM (inactive), the GI50 (OVCAR-8) was 2.82 µM (inactive) and the GI50 (IGROV-1) was 13.2 µM (inactive). The GI50 (HOP-92) was 4.24 µM (inactive), the GI50 (HCT-15) was 2.77 µM and the GI50 (HOP-62) was 36.8 µM (inactive). For the same molecule, the GI50 (COLO 205) was 1.7 µM (inactive), the GI50 (SW-620) was 3.72 µM (inactive) and the GI50 (MOLT-4) was 2.52 µM (inactive). The GI50 (KM12) was 5.18 µM (inactive).
